This passage reports Kd results from ChEMBL document CHEMBL3991601, “The target landscape of clinical kinase drugs” (Science, 2017).

The source made the active and inactive calls. Rule as the data show it, for most assays here: actives have a measured Kd and inactives only a lower limit. Bounds are passed on as bounds.

One assay concerns the target Actin-related protein 2 (Homo sapiens, UniProt P61160).
Assay [1] concerns the target Tyrosine-protein kinase BTK (Homo sapiens, UniProt Q06187).
Assay [2] concerns the target Calcium/calmodulin-dependent protein kinase kinase 2 (Homo sapiens, UniProt Q96RR4).
Assay [3] deals with Serine/threonine-protein kinase MRCK gamma (Homo sapiens, UniProt Q6DT37).
Assay [4] has as its target Tyrosine-protein kinase Lyn (Homo sapiens, UniProt P07948).
In assay [5] the target is Myosin light chain kinase, smooth muscle (Homo sapiens, UniProt Q15746).
Assay [6] has as its target T1, Serine/threonine-protein kinase Nek9 (Homo sapiens, UniProt Q8TD19).
T1 sequence (Q8TD19 whole entry): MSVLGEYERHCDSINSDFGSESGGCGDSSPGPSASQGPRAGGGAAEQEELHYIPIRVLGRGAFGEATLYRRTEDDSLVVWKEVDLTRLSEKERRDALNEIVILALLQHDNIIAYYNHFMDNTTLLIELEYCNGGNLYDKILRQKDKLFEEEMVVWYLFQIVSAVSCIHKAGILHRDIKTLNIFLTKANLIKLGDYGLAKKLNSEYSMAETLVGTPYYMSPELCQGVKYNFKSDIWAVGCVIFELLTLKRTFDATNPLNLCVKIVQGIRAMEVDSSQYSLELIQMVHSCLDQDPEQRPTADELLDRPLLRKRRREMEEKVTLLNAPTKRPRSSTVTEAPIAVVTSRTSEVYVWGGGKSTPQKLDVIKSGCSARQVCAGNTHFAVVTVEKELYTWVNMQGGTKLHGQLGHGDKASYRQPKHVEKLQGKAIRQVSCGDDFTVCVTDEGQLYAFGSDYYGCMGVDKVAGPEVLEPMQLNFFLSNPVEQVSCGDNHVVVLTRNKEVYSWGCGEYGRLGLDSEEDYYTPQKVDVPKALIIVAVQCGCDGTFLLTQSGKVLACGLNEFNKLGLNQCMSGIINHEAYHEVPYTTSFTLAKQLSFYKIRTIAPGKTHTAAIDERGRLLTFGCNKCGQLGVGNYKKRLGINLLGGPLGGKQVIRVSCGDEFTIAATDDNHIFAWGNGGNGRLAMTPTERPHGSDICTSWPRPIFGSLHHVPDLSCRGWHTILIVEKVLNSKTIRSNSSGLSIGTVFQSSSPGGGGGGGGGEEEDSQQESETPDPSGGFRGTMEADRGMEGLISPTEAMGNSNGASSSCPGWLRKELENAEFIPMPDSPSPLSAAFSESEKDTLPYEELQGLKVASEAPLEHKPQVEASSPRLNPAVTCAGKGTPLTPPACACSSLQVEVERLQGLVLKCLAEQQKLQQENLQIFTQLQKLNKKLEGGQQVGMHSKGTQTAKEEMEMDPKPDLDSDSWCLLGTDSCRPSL

The target in assay [7] is Serine/threonine-protein kinase N1 (Homo sapiens, UniProt Q16512).
Assay [8] addresses T2, Serine/threonine-protein kinase D3 (Homo sapiens, UniProt O94806).
T2 sequence (O94806 whole entry): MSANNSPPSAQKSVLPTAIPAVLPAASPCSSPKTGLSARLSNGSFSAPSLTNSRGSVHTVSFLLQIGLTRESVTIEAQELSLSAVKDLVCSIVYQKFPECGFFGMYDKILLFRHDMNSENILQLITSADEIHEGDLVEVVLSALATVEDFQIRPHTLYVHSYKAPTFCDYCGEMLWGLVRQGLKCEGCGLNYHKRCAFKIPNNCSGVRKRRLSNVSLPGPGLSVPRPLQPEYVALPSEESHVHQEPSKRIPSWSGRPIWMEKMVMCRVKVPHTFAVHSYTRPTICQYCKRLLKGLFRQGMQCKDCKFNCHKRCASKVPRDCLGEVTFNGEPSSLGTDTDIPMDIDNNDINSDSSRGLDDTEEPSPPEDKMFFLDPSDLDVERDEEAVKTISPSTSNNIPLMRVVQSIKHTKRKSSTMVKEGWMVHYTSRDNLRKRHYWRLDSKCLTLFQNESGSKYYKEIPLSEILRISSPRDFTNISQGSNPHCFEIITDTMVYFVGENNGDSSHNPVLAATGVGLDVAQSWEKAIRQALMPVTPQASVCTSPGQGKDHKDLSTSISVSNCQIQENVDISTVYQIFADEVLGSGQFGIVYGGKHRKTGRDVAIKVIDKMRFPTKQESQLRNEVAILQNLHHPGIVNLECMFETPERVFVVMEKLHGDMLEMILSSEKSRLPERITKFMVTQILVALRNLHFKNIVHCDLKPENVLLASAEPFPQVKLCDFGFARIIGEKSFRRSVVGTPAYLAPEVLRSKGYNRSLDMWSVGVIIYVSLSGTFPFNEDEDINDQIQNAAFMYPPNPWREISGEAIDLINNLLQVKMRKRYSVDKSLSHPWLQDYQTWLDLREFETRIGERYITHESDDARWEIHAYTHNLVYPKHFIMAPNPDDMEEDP

In assay [9] the target is Protein-tyrosine kinase 6 (Homo sapiens, UniProt Q13882).
The target in assay [10] is T3, Tyrosine--tRNA ligase, cytoplasmic (Homo sapiens, UniProt P54577).
T3 sequence (P54577 whole entry): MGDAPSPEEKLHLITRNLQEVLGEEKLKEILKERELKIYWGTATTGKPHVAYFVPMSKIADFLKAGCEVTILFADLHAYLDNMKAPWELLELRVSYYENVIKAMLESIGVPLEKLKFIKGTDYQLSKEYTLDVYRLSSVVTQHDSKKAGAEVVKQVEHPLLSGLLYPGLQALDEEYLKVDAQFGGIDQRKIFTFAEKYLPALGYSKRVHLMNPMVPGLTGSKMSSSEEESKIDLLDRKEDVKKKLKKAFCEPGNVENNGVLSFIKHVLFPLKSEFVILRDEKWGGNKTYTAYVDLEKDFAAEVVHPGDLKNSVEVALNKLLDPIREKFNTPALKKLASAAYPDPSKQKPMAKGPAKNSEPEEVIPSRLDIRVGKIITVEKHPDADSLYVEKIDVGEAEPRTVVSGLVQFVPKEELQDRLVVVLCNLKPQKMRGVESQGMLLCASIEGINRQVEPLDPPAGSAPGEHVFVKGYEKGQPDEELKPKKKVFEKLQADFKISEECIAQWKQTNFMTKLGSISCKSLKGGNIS

Assay [11] concerns the target Casein kinase II subunit alpha' (Homo sapiens, UniProt P19784).
Assay [12] deals with Serine/threonine-protein kinase pim-1 (Homo sapiens, UniProt P11309).

In general, Kd refers to the equilibrium constant for the complex coming apart.
Also: in the data inactive means no Kd found up to 30 µM.

Serine/threonine-protein kinase pim-1, sequence (P11309 whole entry): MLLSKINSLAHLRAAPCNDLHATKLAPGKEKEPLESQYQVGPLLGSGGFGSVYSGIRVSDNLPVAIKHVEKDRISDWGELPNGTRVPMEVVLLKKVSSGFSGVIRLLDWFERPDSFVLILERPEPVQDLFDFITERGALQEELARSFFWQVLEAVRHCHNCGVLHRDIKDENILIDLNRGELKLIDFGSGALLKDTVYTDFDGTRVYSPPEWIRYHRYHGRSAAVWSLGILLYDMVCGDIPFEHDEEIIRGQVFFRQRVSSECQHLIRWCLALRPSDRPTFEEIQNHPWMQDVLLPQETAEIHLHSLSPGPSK
Tyrosine-protein kinase BTK, sequence (Q06187 whole entry): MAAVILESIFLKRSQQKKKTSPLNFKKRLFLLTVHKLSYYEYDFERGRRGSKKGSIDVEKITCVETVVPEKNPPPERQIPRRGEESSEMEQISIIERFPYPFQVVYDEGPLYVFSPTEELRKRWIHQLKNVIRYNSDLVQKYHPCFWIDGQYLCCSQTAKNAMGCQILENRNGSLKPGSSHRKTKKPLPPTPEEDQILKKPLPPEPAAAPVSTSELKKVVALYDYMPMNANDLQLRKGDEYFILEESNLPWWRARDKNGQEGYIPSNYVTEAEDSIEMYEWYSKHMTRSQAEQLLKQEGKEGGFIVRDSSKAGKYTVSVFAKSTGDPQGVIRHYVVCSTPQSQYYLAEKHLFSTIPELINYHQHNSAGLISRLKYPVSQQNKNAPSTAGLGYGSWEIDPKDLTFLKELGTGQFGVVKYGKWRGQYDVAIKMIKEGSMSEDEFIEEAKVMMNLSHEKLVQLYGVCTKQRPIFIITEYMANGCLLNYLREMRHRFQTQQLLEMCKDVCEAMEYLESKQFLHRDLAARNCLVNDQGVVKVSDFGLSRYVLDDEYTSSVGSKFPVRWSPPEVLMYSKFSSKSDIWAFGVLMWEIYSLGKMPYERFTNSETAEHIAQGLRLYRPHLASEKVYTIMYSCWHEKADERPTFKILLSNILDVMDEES
Serine/threonine-protein kinase N1, sequence (Q16512 whole entry): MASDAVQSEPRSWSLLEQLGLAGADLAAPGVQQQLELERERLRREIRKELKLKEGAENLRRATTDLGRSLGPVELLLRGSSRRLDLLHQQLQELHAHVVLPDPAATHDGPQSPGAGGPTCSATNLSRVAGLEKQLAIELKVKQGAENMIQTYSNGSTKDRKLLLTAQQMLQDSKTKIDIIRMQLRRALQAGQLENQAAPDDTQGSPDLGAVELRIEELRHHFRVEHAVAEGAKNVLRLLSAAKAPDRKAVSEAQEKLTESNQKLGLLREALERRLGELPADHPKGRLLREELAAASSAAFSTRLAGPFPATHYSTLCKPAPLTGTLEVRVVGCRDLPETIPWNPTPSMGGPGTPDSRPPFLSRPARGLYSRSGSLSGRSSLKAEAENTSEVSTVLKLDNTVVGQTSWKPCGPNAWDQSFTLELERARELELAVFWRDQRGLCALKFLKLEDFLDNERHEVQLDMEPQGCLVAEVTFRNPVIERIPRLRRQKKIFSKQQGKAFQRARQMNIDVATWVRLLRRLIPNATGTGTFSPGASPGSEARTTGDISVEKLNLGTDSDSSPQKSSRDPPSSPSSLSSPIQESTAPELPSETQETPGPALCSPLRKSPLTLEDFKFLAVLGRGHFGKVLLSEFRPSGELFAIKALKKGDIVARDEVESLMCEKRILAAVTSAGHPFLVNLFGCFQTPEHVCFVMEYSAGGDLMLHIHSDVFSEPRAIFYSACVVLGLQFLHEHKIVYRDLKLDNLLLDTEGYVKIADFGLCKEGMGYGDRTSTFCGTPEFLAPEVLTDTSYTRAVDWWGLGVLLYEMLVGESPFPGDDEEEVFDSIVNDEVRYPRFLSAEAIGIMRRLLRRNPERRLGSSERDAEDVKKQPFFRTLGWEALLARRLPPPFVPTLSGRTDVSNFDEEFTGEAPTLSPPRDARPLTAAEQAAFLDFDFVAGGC
Myosin light chain kinase, smooth muscle, sequence (Q15746 whole entry): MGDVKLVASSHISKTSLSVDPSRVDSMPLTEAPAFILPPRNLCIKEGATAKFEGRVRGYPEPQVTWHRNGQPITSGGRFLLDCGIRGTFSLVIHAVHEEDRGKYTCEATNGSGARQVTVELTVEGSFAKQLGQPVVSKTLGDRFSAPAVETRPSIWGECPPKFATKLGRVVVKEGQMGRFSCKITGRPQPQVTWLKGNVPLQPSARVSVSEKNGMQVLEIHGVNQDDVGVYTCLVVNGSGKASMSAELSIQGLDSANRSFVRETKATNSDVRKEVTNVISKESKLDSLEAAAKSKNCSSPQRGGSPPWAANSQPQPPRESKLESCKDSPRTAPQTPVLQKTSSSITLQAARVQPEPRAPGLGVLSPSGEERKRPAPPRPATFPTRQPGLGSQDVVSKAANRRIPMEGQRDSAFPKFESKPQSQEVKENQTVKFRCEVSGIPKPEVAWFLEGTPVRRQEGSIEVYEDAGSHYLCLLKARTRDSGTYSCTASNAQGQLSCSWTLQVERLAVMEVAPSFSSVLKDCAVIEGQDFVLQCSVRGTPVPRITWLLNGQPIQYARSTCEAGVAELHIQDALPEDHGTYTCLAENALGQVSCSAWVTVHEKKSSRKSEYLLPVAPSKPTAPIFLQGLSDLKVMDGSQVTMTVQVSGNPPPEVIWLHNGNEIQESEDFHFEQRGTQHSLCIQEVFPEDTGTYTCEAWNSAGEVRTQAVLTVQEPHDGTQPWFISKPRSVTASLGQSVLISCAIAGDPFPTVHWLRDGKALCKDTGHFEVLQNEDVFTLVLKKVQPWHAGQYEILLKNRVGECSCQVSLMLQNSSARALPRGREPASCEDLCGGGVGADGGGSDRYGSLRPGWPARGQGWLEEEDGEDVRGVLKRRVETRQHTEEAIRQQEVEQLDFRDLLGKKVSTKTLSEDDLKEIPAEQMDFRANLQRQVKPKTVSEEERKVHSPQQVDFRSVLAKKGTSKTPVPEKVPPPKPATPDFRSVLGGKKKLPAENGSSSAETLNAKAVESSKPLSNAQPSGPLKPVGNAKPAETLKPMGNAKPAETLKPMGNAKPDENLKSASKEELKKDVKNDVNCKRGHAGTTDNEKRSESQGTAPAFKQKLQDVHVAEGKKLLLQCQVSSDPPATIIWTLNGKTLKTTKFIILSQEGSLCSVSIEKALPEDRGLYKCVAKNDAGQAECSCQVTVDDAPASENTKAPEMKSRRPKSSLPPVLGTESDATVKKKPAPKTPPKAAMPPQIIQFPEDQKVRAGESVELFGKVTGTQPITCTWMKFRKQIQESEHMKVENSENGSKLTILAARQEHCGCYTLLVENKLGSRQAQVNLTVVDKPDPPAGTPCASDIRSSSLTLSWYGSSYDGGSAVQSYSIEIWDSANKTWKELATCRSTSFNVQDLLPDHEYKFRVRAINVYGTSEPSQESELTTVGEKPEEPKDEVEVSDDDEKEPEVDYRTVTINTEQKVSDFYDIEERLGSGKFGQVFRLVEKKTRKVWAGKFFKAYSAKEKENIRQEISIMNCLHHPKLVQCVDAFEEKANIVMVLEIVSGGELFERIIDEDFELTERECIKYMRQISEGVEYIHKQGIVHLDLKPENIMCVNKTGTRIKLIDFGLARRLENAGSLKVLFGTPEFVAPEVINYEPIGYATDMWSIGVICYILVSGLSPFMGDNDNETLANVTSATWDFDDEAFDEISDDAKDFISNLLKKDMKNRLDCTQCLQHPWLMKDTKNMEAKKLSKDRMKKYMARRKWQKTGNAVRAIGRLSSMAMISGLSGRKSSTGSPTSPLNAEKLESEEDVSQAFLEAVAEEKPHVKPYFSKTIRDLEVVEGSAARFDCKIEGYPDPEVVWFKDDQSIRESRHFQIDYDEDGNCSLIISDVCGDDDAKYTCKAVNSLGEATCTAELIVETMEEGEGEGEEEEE
Tyrosine-protein kinase Lyn, sequence (P07948 whole entry): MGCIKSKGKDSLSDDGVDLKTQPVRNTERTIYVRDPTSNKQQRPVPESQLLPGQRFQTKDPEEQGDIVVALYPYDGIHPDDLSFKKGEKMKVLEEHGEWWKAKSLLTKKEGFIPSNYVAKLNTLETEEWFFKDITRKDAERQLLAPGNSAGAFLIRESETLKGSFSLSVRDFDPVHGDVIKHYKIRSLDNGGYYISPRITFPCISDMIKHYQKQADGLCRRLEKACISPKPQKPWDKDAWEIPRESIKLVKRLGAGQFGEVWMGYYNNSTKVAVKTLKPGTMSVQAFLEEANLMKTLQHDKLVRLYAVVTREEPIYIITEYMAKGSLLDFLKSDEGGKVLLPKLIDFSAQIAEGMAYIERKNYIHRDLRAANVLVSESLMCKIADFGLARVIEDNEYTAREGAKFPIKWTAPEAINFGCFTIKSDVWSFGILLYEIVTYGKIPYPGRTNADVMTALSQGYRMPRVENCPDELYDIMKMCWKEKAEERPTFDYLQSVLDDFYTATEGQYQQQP
Casein kinase II subunit alpha', sequence (P19784 whole entry): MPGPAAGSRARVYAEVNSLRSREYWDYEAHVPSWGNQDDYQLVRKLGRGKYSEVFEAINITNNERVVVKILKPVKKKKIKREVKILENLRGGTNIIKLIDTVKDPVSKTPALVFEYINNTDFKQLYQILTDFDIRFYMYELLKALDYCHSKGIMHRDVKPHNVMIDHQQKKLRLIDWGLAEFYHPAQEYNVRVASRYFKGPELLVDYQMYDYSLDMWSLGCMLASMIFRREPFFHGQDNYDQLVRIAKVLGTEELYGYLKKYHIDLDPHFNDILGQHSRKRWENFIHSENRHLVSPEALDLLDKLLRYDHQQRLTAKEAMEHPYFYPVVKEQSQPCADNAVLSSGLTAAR

Take `O=C(O)c1ccc2c(c1)nc(Nc1cccc(Cl)c1)c1ccncc12` [SILMITASERTIB]: the Kd (on Actin-related protein 2; in [1]; in assay [2]; in assay [3]; in assay [4]; in assay [5]) was > 30 µM (inactive) each time. Moreover, the Kd in assay [6] is > 30 µM (inactive); in assay [7], 20.4 µM (active); in assay [8], > 30 µM (inactive); in [9], > 30 µM (inactive); in [10] it was > 30 µM (inactive).
Turning to `CC[C@@](C)(Nc1ccnc(-c2c[nH]c3ncccc23)n1)C(=O)NCC(F)(F)F` [DECERNOTINIB], the Kd was > 30 µM (inactive) in [1]; > 30 µM (inactive) in assay [2]; 3.23 µM (active) in assay [11]; > 30 µM (inactive) in [4]; > 30 µM (inactive) in [5]; > 30 µM (inactive) in assay [6]. For the same compound, the Kd in assay [12] is > 30 µM (inactive); in assay [7], 49.8 µM (active); in assay [8], > 30 µM (inactive); in assay [9], > 30 µM (inactive); in assay [10], > 30 µM (inactive).
`CCN1CCN(Cc2ccc(Nc3ncc(F)c(-c4cc(F)c5nc(C)n(C(C)C)c5c4)n3)nc2)CC1` [ABEMACICLIB]: the Kd is > 30 µM (inactive) at Actin-related protein 2; > 30 µM (inactive) in assay [1]; 2.6 µM (active) in assay [2]; > 30 µM (inactive) in assay [3]; 0.019 µM (active) in assay [11]; > 30 µM (inactive) in assay [4]. Further, the Kd in assay [5] was > 30 µM (inactive); in assay [6], > 30 µM (inactive); in [7], > 30 µM (inactive); in assay [8] it was 1.84 µM (active); in assay [9], > 30 µM (inactive); in assay [10], > 30 µM (inactive).
As for `NC(=O)c1ccc(N(C(N)=O)c2c(F)cccc2F)nc1-c1ccc(F)cc1F` [VX-702], the Kd at Actin-related protein 2 is > 30 µM (inactive); in [1], > 30 µM (inactive); in [2], > 30 µM (inactive); in assay [11], > 30 µM (inactive); in assay [4], > 30 µM (inactive); in assay [5], 0.003 µM. Besides, the Kd in [6], in assay [12], in [7], in assay [8], in assay [9] and in assay [10] was > 30 µM (inactive) each time.
As to `C=CCN(/C=C1/C(=O)O[C@H](COC)[C@@]2(C)C1=C(O)C(=O)C1=C2[C@H](OC(C)=O)C[C@]2(C)C(=O)CC[C@@H]12)CC=C` [SONOLISIB], the Kd in assay [1], in [2], in assay [11], in assay [4], in assay [5] and in [6] was > 30 µM (inactive) in each case. The Kd in [12], in assay [7], in assay [8] and in [9] was > 30 µM (inactive) in each case.
Regarding `COc1cccc(Nc2ncnn3ccc(CN4CC[C@@H](N)[C@H](O)C4)c23)c1` [BMS-690514], the Kd is > 30 µM (inactive) on Actin-related protein 2; > 30 µM (inactive) in [1]; > 30 µM (inactive) in assay [2]; 0.887 µM (active) in assay [4]; > 30 µM (inactive) in assay [5]; > 30 µM (inactive) in assay [6]. Besides, the Kd in [12] is > 30 µM (inactive); in [7], 1.34 µM (active); in assay [8], 0.493 µM (active); in assay [9], > 30 µM (inactive); in [10], > 30 µM (inactive).
For the compound `CCc1nc(C(N)=O)c(Nc2ccc(N3CCC(N4CCN(C)CC4)CC3)c(OC)c2)nc1NC1CCOCC1` [GILTERITINIB], the Kd was > 30 µM (inactive) on Actin-related protein 2; > 30 µM (inactive) in assay [1]; 2.65 µM (active) in assay [2]; 0.96 µM (active) in [11]; > 30 µM (inactive) in assay [4]; 0.188 µM (active) in assay [5]. In addition, the Kd in assay [6], in assay [12], in assay [7], in assay [8], in assay [9] and in assay [10] was > 30 µM (inactive) throughout.
With `CCOc1ccn(-c2ccc(F)cc2)c(=O)c1C(=O)Nc1ccc(Oc2ccnc(N)c2Cl)c(F)c1` [BMS-777607], the Kd in assay [2], in [11], in assay [4], in assay [5], in assay [6] and in assay [12] was > 30 µM (inactive) in each case. The Kd in assay [7], in [8], in [9] and in [10] was > 30 µM (inactive) each time.
As for `CC(C)CC(=O)Nc1[nH]nc2c1CN(C(=O)C1CCN(C)CC1)C2(C)C` [PHA-793887], the Kd (at Actin-related protein 2; in assay [1]; in [2]; in assay [3]; in assay [11]; in assay [4]) was > 30 µM (inactive) throughout. Further, the Kd is > 30 µM (inactive) in [5]; > 30 µM (inactive) in assay [6]; > 30 µM (inactive) in assay [12]; 0.065 µM (active) in [8]; > 30 µM (inactive) in [9]; > 30 µM (inactive) in [10].
